From ChEMBL document CHEMBL1201862, “PubChem BioAssay data set” (2004) come the findings set out here.

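The compound was tested at five concentrations on cells cultured in 96-well plates, with a 48-hour exposure period. GI50 = concentration required for 50% inhibition of growth.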 Calls of active or inactive are those of the source. No stated cut-off is given here; in the data, active = GI50 up to about 1.1 µM and inactive = higher.

Test systems include Hs-578T; M14; SK-MEL-2; NCI-H226; SNB-75; DU-145; MDA-MB-435; T47D; HCC 2998; MCF7; MOLT-4; HL-60; Malme-3M; MDA-MB-231; TK-10; CCRF-CEM.
Holding throughout (assay): NCI tumour cell line growth inhibition, 48 h

Take `CN(C)C(=S)C(Cl)(c1ccccc1)c1ccccc1`: the GI50 in the experiment with Hs-578T is > 100 µM (inactive); with M14, > 100 µM (inactive); with SK-MEL-2 it was 27.4 µM (inactive); in the experiment with NCI-H226 it was 53.7 µM (inactive); in the experiment with SNB-75 it was 15.8 µM (inactive); in the experiment on DU-145 it was 40.6 µM (inactive). In addition, the GI50 is 37.1 µM (inactive) in the experiment on MDA-MB-435; 22.4 µM (inactive) with T47D; > 100 µM (inactive) in the experiment on HCC 2998; 28.6 µM (inactive) in the experiment with MCF7; 11.8 µM (inactive) with MOLT-4; 22.9 µM (inactive) with HL-60. For the same compound, the GI50 is > 100 µM (inactive) in the experiment on Malme-3M, 59.7 µM (inactive) in the experiment on MDA-MB-231, > 100 µM (inactive) in the experiment with TK-10 and 27.1 µM (inactive) in the experiment on CCRF-CEM.

On to `O/N=N/c1ccccn1.OCC1OC2OC3C(CO)OC(OC4C(CO)OC(OC5C(CO)OC(OC6C(CO)OC(OC7C(CO)OC(OC1C(O)C2O)C(O)C7O)C(O)C6O)C(O)C5O)C(O)C4O)C(O)C3O` (stereo unspecified), for which the GI50 is > 100 µM (inactive) in the experiment on Hs-578T; 30.8 µM (inactive) in the experiment with M14; 56.9 µM (inactive) in the experiment with SK-MEL-2; > 100 µM (inactive) with NCI-H226; 37.6 µM (inactive) in the experiment with SNB-75; > 100 µM (inactive) in the experiment on DU-145. Moreover, the GI50 with MDA-MB-435 was 19.2 µM (inactive); with T47D, > 100 µM (inactive); with HCC 2998 it was > 100 µM (inactive); in the experiment on MCF7, > 100 µM (inactive); with MOLT-4, > 100 µM (inactive); in the experiment on HL-60 it was 28.1 µM (inactive). The GI50 in the experiment with Malme-3M was 61 µM (inactive); with MDA-MB-231, > 100 µM (inactive); with TK-10, > 100 µM (inactive); with CCRF-CEM it was 67.5 µM (inactive).

As for `COc1ccc2c(C)c(Oc3c(Cl)c(Cl)c(O)c(C#N)c3C#N)oc2c1`, the GI50 with Hs-578T, with M14, in the experiment on SK-MEL-2, with NCI-H226, with SNB-75 and in the experiment on DU-145 was > 100 µM (inactive) each time. In addition, the GI50 in the experiment on MDA-MB-435, with T47D, with HCC 2998, with MCF7, in the experiment on MOLT-4 and in the experiment with HL-60 was > 100 µM (inactive) each time. The GI50 with Malme-3M, in the experiment with MDA-MB-231, with TK-10 and with CCRF-CEM was > 100 µM (inactive) throughout.

With `OCCSCC(O)Cn1cnc2c(O)nc(Nc3ccccc3)nc21` (stereo unspecified), the GI50 in the experiment on Hs-578T, in the experiment with M14, with SK-MEL-2, with NCI-H226, with SNB-75 and in the experiment with DU-145 was > 100 µM (inactive) each time. Moreover, the GI50 in the experiment on MDA-MB-435, with T47D, with HCC 2998, in the experiment with MCF7, in the experiment on MOLT-4 and in the experiment on HL-60 was > 100 µM (inactive) in each case. The GI50 with Malme-3M, with MDA-MB-231, in the experiment on TK-10 and in the experiment on CCRF-CEM was > 100 µM (inactive) in each case.

For the compound `CN(C(=O)c1ccc(Cl)cc1)C(=S)N1CCN(c2ccccc2)CC1`, the GI50 with Hs-578T was 19 µM (inactive); in the experiment with M14, > 100 µM (inactive); in the experiment with SK-MEL-2, > 100 µM (inactive); in the experiment on NCI-H226, 47.5 µM (inactive); in the experiment on SNB-75, 46.7 µM (inactive); with DU-145, > 100 µM (inactive). The GI50 was > 100 µM (inactive) in the experiment on MDA-MB-435; > 100 µM (inactive) with T47D; > 100 µM (inactive) in the experiment on HCC 2998; 78.9 µM (inactive) with MCF7; 58.3 µM (inactive) in the experiment on MOLT-4; 35.6 µM (inactive) with HL-60. Further, the GI50 with Malme-3M is > 100 µM (inactive); in the experiment with MDA-MB-231, > 100 µM (inactive); in the experiment with TK-10 it was > 100 µM (inactive); with CCRF-CEM it was 56.6 µM (inactive).

Turning to `CCOC(=O)c1c(CN2CCOCC2)n(Cc2ccccc2)c2c1cc(O)c1nc(C)c(C)nc12`, the GI50 is 36.1 µM (inactive) in the experiment with Hs-578T; > 100 µM (inactive) with M14; 20 µM (inactive) in the experiment on SK-MEL-2; 45.5 µM (inactive) with NCI-H226; 9.98 µM (inactive) in the experiment on SNB-75; 78.2 µM (inactive) with DU-145. Further, the GI50 is > 100 µM (inactive) in the experiment with MDA-MB-435; 20 µM (inactive) in the experiment on T47D; > 100 µM (inactive) in the experiment with HCC 2998; 16.7 µM (inactive) in the experiment on MCF7; 71 µM (inactive) in the experiment on MOLT-4; > 100 µM (inactive) with HL-60. Further, the GI50 with Malme-3M was 45.8 µM (inactive); in the experiment with MDA-MB-231, 85.1 µM (inactive); with TK-10 it was 30.3 µM (inactive); in the experiment on CCRF-CEM it was > 100 µM (inactive).

With `CCOC(=O)c1c(C)n(-c2ccc(C)cc2)c2c1cc(O)c1[nH]c3c(c12)CCCC3`, the GI50 in the experiment with Hs-578T is < 0.01 µM (active); in the experiment on M14, 16.6 µM (inactive); with SK-MEL-2 it was 12.4 µM (inactive); with NCI-H226 it was 23.8 µM (inactive); in the experiment with SNB-75, 0.0658 µM (active); with DU-145, 12.8 µM (inactive). For the same compound, the GI50 in the experiment on MDA-MB-435 is 20.1 µM (inactive); with T47D, 20.9 µM (inactive); with HCC 2998, 14.6 µM (inactive); in the experiment with MCF7 it was 16.5 µM (inactive); in the experiment with MOLT-4, 8.77 µM (inactive); in the experiment with HL-60, 7.4 µM (inactive). In addition, the GI50 in the experiment on Malme-3M was 17.7 µM (inactive); in the experiment with MDA-MB-231 it was 20 µM (inactive); in the experiment with TK-10 it was 27.5 µM (inactive); with CCRF-CEM it was 1.38 µM (inactive).

Regarding `Cc1cn(CC2=NCCN2)c(=O)[nH]c1=O`, the GI50 with Hs-578T, with M14, with SK-MEL-2, in the experiment with NCI-H226, in the experiment on SNB-75 and in the experiment with DU-145 was > 100 µM (inactive) in each case. Besides, the GI50 in the experiment on MDA-MB-435, in the experiment on T47D, in the experiment with HCC 2998, in the experiment on MCF7, in the experiment with MOLT-4 and with HL-60 was > 100 µM (inactive) in each case. Further, the GI50 with Malme-3M, in the experiment with MDA-MB-231, in the experiment with TK-10 and in the experiment with CCRF-CEM was > 100 µM (inactive) throughout.

In the case of `Oc1ccc(-c2nc(-c3ccc4ccccc4n3)c(-c3ccc(F)cc3)[nH]2)cc1`, the GI50 was 11 µM (inactive) in the experiment with Hs-578T; 11 µM (inactive) in the experiment on M14; 14.5 µM (inactive) in the experiment on SK-MEL-2; 14.2 µM (inactive) in the experiment on NCI-H226; 21.6 µM (inactive) in the experiment with SNB-75; 15.5 µM (inactive) in the experiment with DU-145. For the same compound, the GI50 is 12.2 µM (inactive) in the experiment on MDA-MB-435; 7.11 µM (inactive) with T47D; 3.94 µM (inactive) with HCC 2998; 4.61 µM (inactive) with MCF7; 1.87 µM (inactive) in the experiment on MOLT-4; 5.94 µM (inactive) with HL-60. Further, the GI50 in the experiment with Malme-3M is 13.7 µM (inactive); in the experiment with MDA-MB-231, 18.5 µM (inactive); with TK-10 it was 13.2 µM (inactive); in the experiment with CCRF-CEM, 15.1 µM (inactive).

For the compound `Cc1ccc(C(=O)Nc2ccc(CP(=O)(O)O)cc2)cc1NC(=O)c1cccc(N)c1`, the GI50 with Hs-578T, in the experiment on M14, in the experiment on SK-MEL-2, in the experiment with NCI-H226, in the experiment on SNB-75 and in the experiment on DU-145 was > 100 µM (inactive) throughout. Moreover, the GI50 with MDA-MB-435, in the experiment with T47D, in the experiment with HCC 2998, in the experiment on MCF7, in the experiment on MOLT-4 and with HL-60 was > 100 µM (inactive) in each case. Besides, the GI50 in the experiment on Malme-3M, with MDA-MB-231, in the experiment on TK-10 and in the experiment on CCRF-CEM was > 100 µM (inactive) throughout.

As to `CCCCc1ccc(-n2sc3ncc([N+](=O)[O-])cc3c2=O)cc1`, the GI50 in the experiment on Hs-578T was 4.93 µM (inactive); with M14, 17.4 µM (inactive); in the experiment with SK-MEL-2, 1.57 µM (inactive); in the experiment on NCI-H226 it was 12.8 µM (inactive); with SNB-75, 4.22 µM (inactive); in the experiment with DU-145 it was 23.3 µM (inactive). The GI50 in the experiment with MDA-MB-435 is 14.4 µM (inactive); in the experiment on T47D it was 10.1 µM (inactive); with HCC 2998, 12.5 µM (inactive); with MCF7, 16 µM (inactive); with MOLT-4, 20.3 µM (inactive); with HL-60, 10.4 µM (inactive). The GI50 was 7.8 µM (inactive) in the experiment on Malme-3M, 11.4 µM (inactive) with MDA-MB-231, 21.1 µM (inactive) with TK-10 and 7.24 µM (inactive) with CCRF-CEM.

As for `Oc1cccc2ccc(Br)nc12`, the GI50 with Hs-578T, in the experiment with M14, with NCI-H226, in the experiment with SNB-75, in the experiment on DU-145 and in the experiment with MDA-MB-435 was > 100 µM (inactive) throughout. In addition, the GI50 in the experiment on T47D is 51.6 µM (inactive); in the experiment with HCC 2998, 63 µM (inactive); in the experiment with MCF7, > 100 µM (inactive); with MOLT-4, > 100 µM (inactive); in the experiment on HL-60, 36.2 µM (inactive); in the experiment with Malme-3M, > 100 µM (inactive). Besides, the GI50 with MDA-MB-231 was > 100 µM (inactive); in the experiment with TK-10, > 100 µM (inactive); in the experiment with CCRF-CEM, 46.6 µM (inactive).
